Where “and” joins values, the source holds several entries; their conditions need not be identical. Identical values can stand only once. Like-named read-outs stand apart in the source and are kept apart here.
Experiments:
[1] = test system: hepatitis B surface antigen (HBsAg); assay: Vaginal wash anti-HBsAg antibody after intranasal HBsAg + AGP-AF; type: in vivo, BALB/c mice; conditions: 10 days after the booster immunization; intranasal HBsAg + 10 μg AGP-AF
Source text: Vaginal samples were collected 10 days after the booster immunization and assayed for anti-HBsAg antibody.

[2] = test system: influenza A/HK/68; set-up: species or system ICR mice; conditions: mouse, in vivo
[3] = Fever response in rabbits (pyrogenicity); type: in vivo; conditions: for PYROGENICITY Total Rise ° C., 3 rabbits: 10 ug/kg, cumulative rise ≥1.5 degree in three rabbits is considered pyrogenic
Experimental: The AGP compounds were also evaluated for their tendency to induce a fever response in rabbits. Each compound was formulated in 10% (v/v) ethanol/water solution at 100 mg/ml, then diluted with D5W to the desired concentration. The material was injected at 3 ml/kg body weight into 3 rabbits. The rise in core temperature of the rabbits was recorded.

[4] = test system: hepatitis B surface antigen (HBsAg); conditions: for % Cytotoxicity (d16, post 2°): HBsAg + 10 μg AGP-AF intranasally; for % Cytotoxicity (d8, post 3°): intranasal HBsAg + 10 μg AGP-AF
[5] = test system: E.G7 (OVA) cells; conditions: s.c. 25 μg OVA in AGP preparation, spleen cells 21 days later
[6] = test system: influenza A/HK/68; type: in vivo, BALB/c mice; conditions: mouse, in vivo
[7] = test system: influenza A/HK/68; set-up: species or system ICR mice; conditions: mouse, in vivo; remark: listed apart in the source
[8] = test system: hepatitis B surface antigen (HBsAg); assay: Cytotoxic T-lymphocyte response to HBsAg with AGP in stable emulsion (AGP-SE); conditions: s.c. 2.0 μg HBsAg + 25 μg AGP/SE
[9] = test system: hepatitis B surface antigen (HBsAg); assay: Anti-HBsAg antibody titer with AGP-SE (ELISA plates coated with HBsAg or p72 peptide); conditions: sera day 28 post 2°, 25 μg AGP-SE
[10] = test system: hepatitis B surface antigen (HBsAg); assay: Serum anti-HBsAg antibody titers after intranasal HBsAg + AGP-AF (ELISA); type: in vivo, BALB/c mice; conditions: for Anti HBsAg Titer^−1 IgG1 / Anti HBsAg Titer^−1 IgG2a: K = 10^3
[11] = test system: influenza A/HK/68; type: in vivo, ICR mice; conditions: mouse, in vivo
[12] = test system: tetanus toxoid; set-up: species or system BFD1 (C57B1/6X DBA/2) female mice; conditions: mouse, in vivo
[13] = test system: ovalbumin; assay: Stimulation of antiovalbumin antibody production; type: in vivo, BDF1 female mice; conditions: 50 μg AGP + 50 μg ovalbumin; second immunization day 21; bled 14 days after second injection
Experimental: BDF1 female mice (8 per group) were immunized with 0.2 ml of emulsions containing 50 μg of the AGPs +50 μg of ovalbumin. A second immunization was administered 21 days post primary. Each mouse was bled 14 days after the second injection.

[14] = test system: tetanus toxoid; conditions: mouse, in vivo, sc
[15] = test system: tetanus toxoid; conditions: mouse, in vivo
[16] = test system: IL-1β; assay: Cytokine induction in human whole blood ex vivo culture: IL-1β (ELISA); type: cell-based; conditions: 4 hr, Table 17
Method in brief: (§1)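 Compounds in 10% EtOH-water added at 1:10 to human whole blood, 4 hr at 37° C with rotation; RPMI-treated controls. After PBS dilution and centrifugation, supernatant TNF-α and IL-1β measured by ELISA.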

[17] = test system: TNF-α; assay: Cytokine induction in human whole blood ex vivo culture: TNF-α (ELISA); type: cell-based; conditions: 4 hr, Table 17
Method in brief: as §1

[18] = test system: influenza A/HK/68; assay: Second intranasal influenza vaccine experiment with aqueous AGP and MPL formulations: vaginal, tracheal wash and serum titers, protection; type: in vivo, BABL/c mice; conditions: mouse, in vivo
[19] = ELISA plates coated with p72 peptide
[20] = day 22 post 2°, HBsAg + 10 μg AGP-AF intranasally
[21] = serum, day 21 post 3°, intranasal HBsAg + 10 μg AGP-AF

3-Hydroxy-(S)-2-[(R)-3-dodecanoyloxytetradecanoylamino]propyl 2-Deoxy-4-O-phosphono-2-[(R)-3-dodecanoyloxytetradecanoylamino]-3-O-[(R)-3-dodecanoyloxytetradecanoyl]-β-D-glucopyranoside Triethylammonium Salt [B3]
Vaginal Wash Anti-HBsAg Titer^−1 IgA [1]: 1600
Vaginal Wash Anti-HBsAg Titer^−1 IgG [1]: 800
IgG Titer-1 post 1° [2]: 3200
IgG Titer-1 post 2° [2]: 102,400
Percent Survival post 1° [2]: 70%
Percent Survival post 2° [2]: 60%
PYROGENICITY Total Rise ° C., 3 rabbits [3]: 4.2 °C
% Cytotoxicity (d16, post 2°) ([4]; E/T 6.25:1): 11%
% Cytotoxicity (d8, post 3°) ([4]; E/T 6.25:1): 20%
% Cytotoxicity (d16, post 2°) ([4]; E/T 12.5:1): 17%
% Cytotoxicity (d8, post 3°) ([4]; E/T 12.5:1): 32%
% Cytotoxicity (d16, post 2°) ([4]; E/T 25:1): 26%
% Cytotoxicity (d8, post 3°) ([4]; E/T 25:1): 45%
% Cytotoxicity (d16, post 2°) ([4]; E/T 50:1): 43%
% Cytotoxicity (d8, post 3°) ([4]; E/T 50:1): 54%
% Cytotoxicity ([5]; E:T 12.5:1): 42%
% Cytotoxicity ([5]; E:T 25:1): 54%
% Cytotoxicity ([5]; E:T 50:1): 65%
Anti-influenza Titer^−1 IgG1 [6]: 3200
Anti-influenza Titer^−1 IgG2b [6]: 800
Anti-influenza Titer^−1 Total IgG [6]: 3200
Percent Survival [6]: 87.5%
Percent Survival [7]: 33%
% Cytotoxicity ([8]; d16, post 2°, E:T 6.25:1): 22%
% Cytotoxicity ([8]; d16, post 2°, E:T 12.5:1): 32%
% Cytotoxicity ([8]; d16, post 2°, E:T 25:1): 47%
% Cytotoxicity ([8]; d16, post 2°, E:T 50:1): 81%
% Cytotoxicity ([8]; d17, post 1°, E:T 6.25:1): 5%
% Cytotoxicity ([8]; d17, post 1°, E:T 12.5:1): 9%
% Cytotoxicity ([8]; d17, post 1°, E:T 25:1): 15%
% Cytotoxicity ([8]; d17, post 1°, E:T 50:1): 28%
Anti-HBsAg Titer^−1 HBsAg IgG1 ([9]; ELISA plates coated with HBsAg): 512K
Anti-HBsAg Titer^−1 HBsAg IgG2a ([9]; ELISA plates coated with HBsAg): 1024K
Anti-HBsAg Titer^−1 p72-Peptide IgG1 [9, 19]: 16K
Anti-HBsAg Titer^−1 p72-Peptide IgG2a [9, 19]: 128K
Anti HBsAg Titer^−1 IgA [10, 20]: 6,400
Anti HBsAg Titer^−1 IgG1 [10, 20]: 1000K
Anti HBsAg Titer^−1 IgG2a [10, 20]: 500K
Anti HBsAg Titer^−1 IgG1 [10, 21]: 1000K
Anti HBsAg Titer^−1 IgG2a [10, 21]: 1000K
Anti HBsAg Titer^−1 IgA [10, 21]: 25,600
Percent Survival [11]: 0%
Titer−1 IgG2a [11]: 50
Titer−1 IgG2b [11]: 800

N-[(R)-3-Decanoyloxytetradecanoyl]-O-[2-deoxy-4-O-phosphono-2-[(R)-3-decanoyloxytetradecanoylamino]-3-O-[(R)-3-decanoyloxytetradecanoyl]-β-D-glucopyranosyl]-L-serine Triethylammonium Salt [B15]
Vaginal Wash Anti-HBsAg Titer^−1 IgA [1]: 3200
Vaginal Wash Anti-HBsAg Titer^−1 IgG [1]: 50
PYROGENICITY Total Rise ° C., 3 rabbits [3]: 3.1 °C
PY[…] ([3]; rabbits): <0.06 µg/kg
% Cytotoxicity (d16, post 2°) ([4]; E/T 6.25:1): 4%
% Cytotoxicity (d8, post 3°) ([4]; E/T 6.25:1): 16%
% Cytotoxicity (d16, post 2°) ([4]; E/T 12.5:1): 4%
% Cytotoxicity (d8, post 3°) ([4]; E/T 12.5:1): 25%
% Cytotoxicity (d16, post 2°) ([4]; E/T 25:1): 5%
% Cytotoxicity (d8, post 3°) ([4]; E/T 25:1): 42%
% Cytotoxicity (d16, post 2°) ([4]; E/T 50:1): 13%
% Cytotoxicity (d8, post 3°) ([4]; E/T 50:1): 56%
% Cytotoxicity ([5]; E:T 12.5:1): 30%
% Cytotoxicity ([5]; E:T 25:1): 49%
% Cytotoxicity ([5]; E:T 50:1): 58%
IgG1 T/C Ratio [12]: 4.1 and 4.5 and 5.5
IgM T/C [12]: 3.14 and 2.29 and 2.86 and 1.71 and 1.57
Total Ig T/C [12]: 233.88 and 181.91 and 170.10 and 248.06 and 166.56
Total Ig T/C Ratio [12]: 3.3 and 5.8 and 5.3
Anti-ovalbumin IgG1 T/C [13]: 0.6
Anti-ovalbumin IgG1 Titer [13]: 950
Anti-ovalbumin IgG2a T/C [13]: 0.3
Anti-ovalbumin IgG2a Titer [13]: 113
Anti-ovalbumin IgG2b T/C [13]: 16.7
Anti-ovalbumin IgG2b Titer [13]: 3963
Anti-ovalbumin IgM T/C [13]: 2.3
Anti-ovalbumin IgM Titer [13]: 438
Anti-ovalbumin Total Ig T/C [13]: 4.1
Anti-ovalbumin Total Ig Titer [13]: 925
Anti-tetanus toxoid IgM T/C [14]: 4.0 and 2.7
Anti-tetanus toxoid Total Ig T/C [14]: 144.5
Anti-tetanus toxoid Total Ig Titer [14]: 34,400
Anti-tetanus toxoid Total IgG T/C [14]: 18.85
Anti-tetanus toxoid Total IgG Titer [14]: 121,600
Anti-Tetanus Toxoid Titer^−1 Fecal Extract IgG [15]: 50 and 100
Anti-Tetanus Toxoid Titer^−1 Vaginal Wash IgA [15]: 6400
Anti-Tetanus Toxoid Titer^−1 Vaginal Wash IgG [15]: 400 and 800
IL-1β ([16]; Dosage 100 ng/ml): 51.6 pg/mL
IL-1β ([16]; Dosage 500 ng/ml): 104 pg/mL
IL-1β ([16]; Dosage 1000 ng/ml): 94.4 pg/mL
IL-1β ([16]; Dosage 5000 ng/ml): 126 pg/mL
IL-1β ([16]; Dosage 10,000 ng/ml): 153 pg/mL
Anti-influenza Titer^−1 IgG1 [6]: 3200
Anti-influenza Titer^−1 IgG2a [6]: 3200
Anti-influenza Titer^−1 IgG2b [6]: 400
Anti-influenza Titer^−1 Total IgG [6]: 1600
Percent Survival [6]: 100%
TNF-α ([17]; Dosage 100 ng/ml): 133 pg/mL
TNF-α ([17]; Dosage 500 ng/ml): 183 pg/mL
TNF-α ([17]; Dosage 1000 ng/ml): 209 pg/mL
TNF-α ([17]; Dosage 5000 ng/ml): 280 pg/mL
TNF-α ([17]; Dosage 10,000 ng/ml): 320 pg/mL
Anti-influenza Titer^−1 Total IgG [7]: 6400
Percent Survival [7]: 50%
Anti HBsAg Titer^−1 IgA [10, 20]: 6,400
Anti HBsAg Titer^−1 IgG1 [10, 20]: 256K
Anti HBsAg Titer^−1 IgG2a [10, 20]: 500K
Anti HBsAg Titer^−1 IgG1 [10, 21]: 2000K
Anti HBsAg Titer^−1 IgG2a [10, 21]: 2000K
Anti HBsAg Titer^−1 IgA [10, 21]: 25,600
Mucosal IgA Response TW [18]: 11.1
Mucosal IgA Response VW [18]: 10.9
Percent Protection [18]: 100%
Serum IgG Titers [18]: 19.1
mucosal adjuvant activity (in words) [18]: act as mucosal adjuvants causing the production of IgA at two mucosal sites
Percent Survival [11]: 70%
Titer^−1 IgG1 [11]: 200
Titer^−1 IgG2a [11]: 3200
Titer^−1 IgG2b [11]: 6400
Titer^−1 Total IgG [11]: 3200
